Entries after “also recorded” stand apart in the source; their conditions may differ.
How the values were obtained:
[1] = target: RPE65 (Bos taurus, UniProt Q28175); assay: RPE65 activity assay in vitro; format: biochemical, bovine; conditions: for inhibition of RPE65 in vitro: concentration range 0.1-50 μM
[2] = target: T1, RPE65 (Mus musculus, UniProt Q91ZQ5); conditions: 10 mg/kg IP; for RPE65 inhibition in vivo (in words): BALB/cJ mice; for 11cRAL level in eye / RE level in eye: four hours of dark adaptation after light exposure, mean ± SD, n=3
T1 sequence (Q91ZQ5 1-533): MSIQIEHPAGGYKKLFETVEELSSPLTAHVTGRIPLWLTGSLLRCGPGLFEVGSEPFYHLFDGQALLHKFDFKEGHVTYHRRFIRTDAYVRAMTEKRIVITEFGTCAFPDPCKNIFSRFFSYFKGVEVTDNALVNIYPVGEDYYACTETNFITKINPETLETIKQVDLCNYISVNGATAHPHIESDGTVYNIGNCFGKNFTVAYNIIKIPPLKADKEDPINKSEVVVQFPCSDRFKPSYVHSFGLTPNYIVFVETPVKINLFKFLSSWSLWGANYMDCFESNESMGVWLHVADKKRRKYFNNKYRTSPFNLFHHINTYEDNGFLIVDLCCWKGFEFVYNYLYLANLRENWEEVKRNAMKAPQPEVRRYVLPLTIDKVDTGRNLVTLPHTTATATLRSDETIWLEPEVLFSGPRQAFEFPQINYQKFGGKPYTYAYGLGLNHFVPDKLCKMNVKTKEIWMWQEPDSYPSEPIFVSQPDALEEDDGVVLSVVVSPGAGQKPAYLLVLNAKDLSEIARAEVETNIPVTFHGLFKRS

[3] = target: T2, VAP-1 (Mus musculus, UniProt O70423); assay: VAP-1 oxidation assay in mouse aorta homogenates; conditions: for Concentration of 16e in mouse aorta homogenates: substrate 16e 100 μM
T2 sequence (O70423 1-765): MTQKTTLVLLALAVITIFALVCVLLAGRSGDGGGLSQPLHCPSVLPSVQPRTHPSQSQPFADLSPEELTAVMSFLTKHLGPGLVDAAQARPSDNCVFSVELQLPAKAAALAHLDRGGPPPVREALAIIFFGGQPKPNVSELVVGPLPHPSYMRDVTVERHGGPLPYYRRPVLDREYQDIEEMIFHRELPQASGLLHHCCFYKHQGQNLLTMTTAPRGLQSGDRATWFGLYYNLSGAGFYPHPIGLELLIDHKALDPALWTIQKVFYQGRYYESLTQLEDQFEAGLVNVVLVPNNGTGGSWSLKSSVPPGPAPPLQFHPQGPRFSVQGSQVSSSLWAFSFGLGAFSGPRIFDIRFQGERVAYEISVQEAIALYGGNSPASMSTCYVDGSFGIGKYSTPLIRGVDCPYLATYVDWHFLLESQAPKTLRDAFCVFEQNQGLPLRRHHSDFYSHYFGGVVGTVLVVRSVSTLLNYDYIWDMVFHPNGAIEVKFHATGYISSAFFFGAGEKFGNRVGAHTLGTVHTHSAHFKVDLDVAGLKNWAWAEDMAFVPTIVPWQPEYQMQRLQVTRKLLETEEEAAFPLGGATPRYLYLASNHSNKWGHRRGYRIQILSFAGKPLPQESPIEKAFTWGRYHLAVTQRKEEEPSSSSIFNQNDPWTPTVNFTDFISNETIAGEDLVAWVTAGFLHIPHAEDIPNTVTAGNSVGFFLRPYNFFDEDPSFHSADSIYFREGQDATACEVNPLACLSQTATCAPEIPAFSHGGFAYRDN

[4] = in vivo; conditions: C57BL/6J, mouse, serum, intraperitoneal, 10 mg/kg
[5] = tested on: CYP-450 enzymes; assay: Liver microsomes assay

RPE65 (Bos taurus, UniProt Q28175), sequence (Q28175 whole entry): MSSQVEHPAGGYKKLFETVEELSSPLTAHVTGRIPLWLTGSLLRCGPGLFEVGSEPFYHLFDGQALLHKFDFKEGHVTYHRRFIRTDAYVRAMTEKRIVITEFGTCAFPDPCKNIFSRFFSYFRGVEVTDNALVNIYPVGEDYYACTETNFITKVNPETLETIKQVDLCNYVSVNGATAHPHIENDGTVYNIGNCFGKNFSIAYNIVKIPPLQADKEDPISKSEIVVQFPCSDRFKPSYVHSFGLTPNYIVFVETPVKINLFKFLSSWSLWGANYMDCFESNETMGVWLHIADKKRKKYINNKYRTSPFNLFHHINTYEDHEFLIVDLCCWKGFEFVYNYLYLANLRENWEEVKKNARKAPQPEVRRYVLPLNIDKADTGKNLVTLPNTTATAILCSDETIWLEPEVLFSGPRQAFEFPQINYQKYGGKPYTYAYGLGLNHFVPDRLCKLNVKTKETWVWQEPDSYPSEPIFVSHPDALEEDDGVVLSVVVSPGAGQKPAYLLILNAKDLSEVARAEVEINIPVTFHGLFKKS

NC(CCO)c1cccc(OCC2CCCCC2)c1 (stereo not shown) [6a, 3-Amino-3-(3-(cyclohexylmethoxy)phenyl)propan-1-ol]
inhibition of RPE65 in vitro [1]: lack of inhibitory activity; also recorded: no inhibition

NC(CO)Cc1cccc(OCC2CCCCC2)c1 (stereo not shown) [6b, 2-Amino-3-(3-(cyclohexylmethoxy)phenyl)propan-1-ol]
inhibition of RPE65 in vitro [1]: no inhibition

NC(CO)Cc1ccc(OCC2CCCCC2)cc1 (stereo not shown) [6c, 2-Amino-3-(4-(cyclohexylmethoxy)phenyl)propan-1-ol]
inhibition of RPE65 in vitro [1]: lack of dose-response relationship

NCCc1cccc(OCC2CCCCC2)c1 [11b, 2-(3-(Cyclohexylmethoxy)phenyl)ethan-1-amine]
potency towards RPE65 relative to amine 11a ([1]; ratio of IC50 values): 7.6 times | RPE65 inhibition in vivo (in words) [2]: did not display hallmarks of inhibited RPE65 activity

CC(CCN)c1cccc(OCC2CCCCC2)c1 (stereo not shown) [16b, 3-(3-(Cyclohexylmethoxy)phenyl)butan-1-amine]
RPE65 inhibition in vivo (in words) [2]: minor RPE65 inhibition | non-specific toxicity observation ([2]; all animals, even 24 hours after treatment): impaired body movement | 11cRAL level in eye [2]: 253.5 ± 9.0 pmol/eye | RE level in eye [2]: 85.6 ± 12.7 pmol/eye

CC(CN)Cc1cccc(OCC2CCCCC2)c1 (stereo not shown) [16c, (3-(Cyclohexylmethoxy)phenyl)-2-methylpropan-1-amine]
RPE65 inhibition in vivo (in words) [2]: minor RPE65 inhibition | 11cRAL level in eye [2]: 370.5 ± 9.1 pmol/eye | RE level in eye [2]: 123.9 ± 36.4 pmol/eye

CNCCC(O)c1cccc(OCC2CCCCC2)c1 (stereo not shown) [16e, 1-(3-(Cyclohexylmethoxy)phenyl)-3-(methylamino)propan-1-ol]
Concentration of 16e in mouse aorta homogenates ([3]; time 0): 100.32 ± 0.95 µM | Concentration of 16e in mouse aorta homogenates ([3]; time 1): 101.20 ± 0.89 µM | concentration at 24 h [4]: 0 nM | 11cRAL per eye as % of the dark adapted (DA) level ([2]; 24 hours post treatment): 53% | RPE65 inhibition in vivo (in words) [2]: potent RPE65 inhibition | hepatic clearance relative to 3a ([5]; Cint ratio): 5.5 times | rate of liver metabolism relative to 3a ([5]; Vmax ratio): 1.7 times | demethylation to 3a in liver microsomes ([5]; one-hour exposure, 200 μM): minor amount of demethylation

O=CC=Cc1cccc(OCC2CCCCC2)c1 [ACU-5201]
Concentration of deaminated product ACU-5201 in mouse aorta homogenates ([3]; formed from substrate 3a, time 0): 0.00 ± 0.00 µM | Concentration of deaminated product ACU-5201 in mouse aorta homogenates ([3]; formed from substrate 3a, time 1): 19.71 ± 0.29 µM | Concentration of deaminated product ACU-5201 in mouse aorta homogenates ([3]; formed from substrate 3a, time 4): 54.81 ± 6.38 µM | Concentration of deaminated product ACU-5201 in mouse aorta homogenates ([3]; formed from substrate 16e, time 1): 0.48 ± 0.68 µM | Concentration of deaminated product ACU-5201 in mouse aorta homogenates ([3]; formed from substrate 16e, time 4): 3.76 ± 0.29 µM

From publication PMC10824489 (Journal of medicinal chemistry, 2023)
